# According to patent US9695155B2, “Herbicidal substituted pyrimidinyloxy benzene compounds” (E. I. DU PONT DE NEMOURS AND COMPANY, priority 2013, dated 2017):
# Assays:
# johnsongrass = assay: Test C postemergence; type: in vivo, Sorghum halepense; details: for Johnsongrass plant response rating: 16 g ai/ha, visual rating; for Johnsongrass plant response rating / Plant response rating (0 to 100), Johnsongrass: postemergence; for Johnsongrass plant response rating / Plant response rating, Johnsongrass: scale 0 to 100 (0 no effect, 100 complete control); for Plant response rating (0 to 100), Johnsongrass: 125 g ai/ha; for Plant response rating, Johnsongrass: Postemergence
# Outline: (§1)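 Whole-plant greenhouse test with surfactant-containing solvent formulation, applied preemergence to sown loam–sand pots or postemergence to 2–18 cm plants. Scored by eye 13 to 15 days on, 0–100 scale.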
# barnyardgrass [1] = assay: Test C postemergence; type: in vivo, Echinochloa crus-galli; details: for Barnyardgrass plant response rating: 16 g ai/ha, visual rating; for Barnyardgrass plant response rating / Plant response rating (0 to 100), Barnyardgrass: postemergence; for Barnyardgrass plant response rating / Plant response rating, Barnyardgrass: scale 0 to 100 (0 no effect, 100 complete control); for Plant response rating (0 to 100), Barnyardgrass: 125 g ai/ha; for Plant response rating, Barnyardgrass: Postemergence
# Outline: as §1
# morningglory [2] = assay: Test A preemergence; type: in vivo, Ipomoea spp.; details: for Plant response rating, Morningglory: 125 g ai/ha, 0 to 100 scale where 0 is no effect and 100 is complete control; for Morningglory plant response rating: 500 g ai/ha, 0 to 100 scale, 0 no effect, 100 complete control, approx. 10 days
# Outline: (§2)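 Visual injury scored 0–100 (100 = complete control) against untreated controls about 10 days after treatment in a greenhouse. Test chemicals, formulated with surfactant in non-phytotoxic solvent, were sprayed on soil preemergence or on 2-10 cm, one- to two-leaf plants postemergence.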
# oilseed rape = assay: Test C postemergence; type: in vivo, Brassica napus; details: for Plant response rating (0 to 100), Oilseed Rape: 125 g ai/ha, postemergence; for Plant response rating, Oilseed Rape: Postemergence, scale 0 to 100 (0 no effect, 100 complete control)
# Outline: as §1
# sedge, umbrella = assay: Test B flooded paddy test; type: in vivo, Cyperus difformis; details: Flood, 250 g ai/ha; 0 to 100 scale where 0 is no effect and 100 is complete control
# Outline: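 Flooded to 3 cm at the 2-leaf stage, pots received compound through the paddy water and were kept at that depth under greenhouse conditions. After 13–15 days, effect was rated by eye relative to controls, 0 = none and 100 = complete control.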
# wheat [3] = assay: Test A preemergence; type: in vivo, Triticum aestivum; details: 125 g ai/ha, 0 to 100 scale where 0 is no effect and 100 is complete control
# Outline: as §2
# large (Lg) crabgrass = assay: Test C postemergence; type: in vivo, Digitaria sanguinalis; details: for Crabgrass, Large plant response rating: 16 g ai/ha, visual rating; for Crabgrass, Large plant response rating / Plant response rating (0 to 100), Crabgrass, Large: postemergence; for Crabgrass, Large plant response rating / Plant response rating, Crabgrass, Large: scale 0 to 100 (0 no effect, 100 complete control); for Plant response rating (0 to 100), Crabgrass, Large: 125 g ai/ha; for Plant response rating, Crabgrass, Large: Postemergence
# Outline: as §1
# kochia = assay: Test C postemergence; type: in vivo, Kochia scoparia; details: for Kochia plant response rating: 16 g ai/ha, visual rating; for Kochia plant response rating / Plant response rating (0 to 100), Kochia: postemergence; for Kochia plant response rating / Plant response rating, Kochia: scale 0 to 100 (0 no effect, 100 complete control); for Plant response rating (0 to 100), Kochia: 125 g ai/ha; for Plant response rating, Kochia: Postemergence
# Outline: as §1
# blackgrass = assay: Test C postemergence; type: in vivo, Alopecurus myosuroides; details: for Blackgrass plant response rating: 16 g ai/ha, visual rating; for Blackgrass plant response rating / Plant response rating (0 to 100), Blackgrass: postemergence; for Blackgrass plant response rating / Plant response rating, Blackgrass: scale 0 to 100 (0 no effect, 100 complete control); for Plant response rating (0 to 100), Blackgrass: 125 g ai/ha; for Plant response rating, Blackgrass: Postemergence
# Outline: as §1
# barnyardgrass [4] = assay: Test A preemergence; type: in vivo, Echinochloa crus-galli; details: for Plant response rating, Barnyardgrass: 125 g ai/ha, 0 to 100 scale where 0 is no effect and 100 is complete control; for Barnyardgrass plant response rating: 500 g ai/ha, 0 to 100 scale, 0 no effect, 100 complete control, approx. 10 days
# Outline: as §2
# morningglory [5] = assay: Test C postemergence; type: in vivo, Ipomoea coccinea; details: for Plant response rating (0 to 100), Morningglory: 125 g ai/ha, postemergence; for Plant response rating, Morningglory: Postemergence, scale 0 to 100 (0 no effect, 100 complete control)
# Outline: as §1
# yellow nutsedge = assay: Test C postemergence; type: in vivo, Cyperus esculentus; details: for Plant response rating (0 to 100), Nutsedge, Yellow: 125 g ai/ha, postemergence; for Plant response rating, Nutsedge, Yellow: Postemergence, scale 0 to 100 (0 no effect, 100 complete control)
# Outline: as §1
# wheat [6] = assay: Test A postemergence; type: in vivo, Triticum aestivum; details: 0 to 100 scale where 0 is no effect and 100 is complete control
# Outline: as §2
# corn = assay: Test A preemergence; type: in vivo, Zea mays; details: for Plant response rating, Corn: 125 g ai/ha, 0 to 100 scale where 0 is no effect and 100 is complete control; for Corn plant response rating: 500 g ai/ha, 0 to 100 scale, 0 no effect, 100 complete control, approx. 10 days
# Outline: as §2
# morningglory [7] = assay: Test A postemergence; type: in vivo, Ipomoea spp.; details: 0 to 100 scale where 0 is no effect and 100 is complete control
# Outline: as §2
smiles,measurement,setting,value
N#Cc1cccc(Oc2ncc(Cl)cn2)c1-n1cc(OC(F)F)cn1 [Compound 97],Johnsongrass plant response rating,johnsongrass; 13 to 15 days,5
same,"Plant response rating (0 to 100), Johnsongrass",johnsongrass,5
same,"Plant response rating, Johnsongrass","johnsongrass; 31 g ai/ha, 13 to 15 days",5
same,"Plant response rating, Johnsongrass",johnsongrass; 62 g ai/ha,15
same,Barnyardgrass plant response rating,barnyardgrass [1]; 13 to 15 days,10
same,"Plant response rating (0 to 100), Barnyardgrass",barnyardgrass [1],15
same,"Plant response rating, Barnyardgrass","barnyardgrass [1]; 31 g ai/ha, 13 to 15 days",10
same,"Plant response rating, Barnyardgrass",barnyardgrass [1]; 62 g ai/ha,10
same,"Plant response rating, Morningglory",morningglory [2],100
same,Morningglory plant response rating,morningglory [2],100
same,"Plant response rating (0 to 100), Oilseed Rape",oilseed rape,80
same,"Plant response rating, Oilseed Rape","oilseed rape; 31 g ai/ha, 13 to 15 days",60
same,"Plant response rating, Oilseed Rape",oilseed rape; 62 g ai/ha,80
same,"Plant response rating, Sedge, Umbrella","sedge, umbrella",90
same,"Plant response rating, Wheat",wheat [3],0
same,"Crabgrass, Large plant response rating",large (Lg) crabgrass; 13 to 15 days,5
same,"Plant response rating (0 to 100), Crabgrass, Large",large (Lg) crabgrass,55
same,"Plant response rating, Crabgrass, Large","large (Lg) crabgrass; 31 g ai/ha, 13 to 15 days",10
same,"Plant response rating, Crabgrass, Large",large (Lg) crabgrass; 62 g ai/ha,15
same,Kochia plant response rating,kochia; 13 to 15 days,80
same,"Plant response rating (0 to 100), Kochia",kochia,100
same,"Plant response rating, Kochia","kochia; 31 g ai/ha, 13 to 15 days",90
same,"Plant response rating, Kochia",kochia; 62 g ai/ha,95
same,Blackgrass plant response rating,blackgrass; 13 to 15 days,10
same,"Plant response rating (0 to 100), Blackgrass",blackgrass,40
same,"Plant response rating, Blackgrass","blackgrass; 31 g ai/ha, 13 to 15 days",5
same,"Plant response rating, Blackgrass",blackgrass; 62 g ai/ha,10
same,"Plant response rating, Barnyardgrass",barnyardgrass [4],80
same,Barnyardgrass plant response rating,barnyardgrass [4],100
same,"Plant response rating (0 to 100), Morningglory",morningglory [5],95
same,"Plant response rating, Morningglory","morningglory [5]; 31 g ai/ha, 13 to 15 days",85
same,"Plant response rating, Morningglory",morningglory [5]; 62 g ai/ha,85
same,"Plant response rating (0 to 100), Nutsedge, Yellow",yellow nutsedge,5
same,"Plant response rating, Nutsedge, Yellow","yellow nutsedge; 31 g ai/ha, 13 to 15 days",5
same,"Plant response rating, Nutsedge, Yellow",yellow nutsedge; 62 g ai/ha,5
same,"Plant response rating, Wheat",wheat [6]; 125 g ai/ha,50
same,"Plant response rating, Wheat",wheat [6]; 500 g ai/ha,70
same,"Plant response rating, Corn",corn,40
same,Corn plant response rating,corn,60
same,"Plant response rating, Morningglory",morningglory [7]; 125 g ai/ha,90
same,"Plant response rating, Morningglory",morningglory [7]; 500 g ai/ha,100
FC(F)Oc1cnn(-c2ccccc2Oc2ncc(Cl)cn2)c1 [Compound 98],Johnsongrass plant response rating,johnsongrass; 13 to 15 days,0
same,"Plant response rating (0 to 100), Johnsongrass",johnsongrass,10
same,"Plant response rating, Johnsongrass","johnsongrass; 31 g ai/ha, 13 to 15 days",0
same,"Plant response rating, Johnsongrass",johnsongrass; 62 g ai/ha,5
same,Barnyardgrass plant response rating,barnyardgrass [1]; 13 to 15 days,5
same,"Plant response rating (0 to 100), Barnyardgrass",barnyardgrass [1],15
same,"Plant response rating, Barnyardgrass","barnyardgrass [1]; 31 g ai/ha, 13 to 15 days",5
same,"Plant response rating, Barnyardgrass",barnyardgrass [1]; 62 g ai/ha,10
same,"Plant response rating, Morningglory",morningglory [2],60
same,Morningglory plant response rating,morningglory [2],80
same,"Plant response rating (0 to 100), Oilseed Rape",oilseed rape,98
same,"Plant response rating, Oilseed Rape","oilseed rape; 31 g ai/ha, 13 to 15 days",80
same,"Plant response rating, Oilseed Rape",oilseed rape; 62 g ai/ha,95
same,"Plant response rating, Sedge, Umbrella","sedge, umbrella",85
same,"Plant response rating, Wheat",wheat [3],0
same,"Crabgrass, Large plant response rating",large (Lg) crabgrass; 13 to 15 days,5
same,"Plant response rating (0 to 100), Crabgrass, Large",large (Lg) crabgrass,5
same,"Plant response rating, Crabgrass, Large","large (Lg) crabgrass; 31 g ai/ha, 13 to 15 days",5
same,"Plant response rating, Crabgrass, Large",large (Lg) crabgrass; 62 g ai/ha,5
same,Kochia plant response rating,kochia; 13 to 15 days,70
same,"Plant response rating (0 to 100), Kochia",kochia,98
same,"Plant response rating, Kochia","kochia; 31 g ai/ha, 13 to 15 days",80
same,"Plant response rating, Kochia",kochia; 62 g ai/ha,90
same,Blackgrass plant response rating,blackgrass; 13 to 15 days,0
same,"Plant response rating (0 to 100), Blackgrass",blackgrass,20
same,"Plant response rating, Blackgrass","blackgrass; 31 g ai/ha, 13 to 15 days",5
same,"Plant response rating, Blackgrass",blackgrass; 62 g ai/ha,30
same,"Plant response rating, Barnyardgrass",barnyardgrass [4],50
same,Barnyardgrass plant response rating,barnyardgrass [4],100
same,"Plant response rating (0 to 100), Morningglory",morningglory [5],85
same,"Plant response rating, Morningglory","morningglory [5]; 31 g ai/ha, 13 to 15 days",30
same,"Plant response rating, Morningglory",morningglory [5]; 62 g ai/ha,65
same,"Plant response rating (0 to 100), Nutsedge, Yellow",yellow nutsedge,5
same,"Plant response rating, Nutsedge, Yellow","yellow nutsedge; 31 g ai/ha, 13 to 15 days",10
same,"Plant response rating, Nutsedge, Yellow",yellow nutsedge; 62 g ai/ha,5
same,"Plant response rating, Wheat",wheat [6]; 500 g ai/ha,60
same,"Plant response rating, Corn",corn,0
same,Corn plant response rating,corn,10
same,"Plant response rating, Morningglory",morningglory [7]; 500 g ai/ha,100
